The record followed here is patent US20110294992A1, “METAL RESPONSIVE MRI-AGENTS” (The Regents of the University of California, priority 2010, published 2011).

SMILES strings stand for the structures. Marks after values point to notes of the source that are not given here.

The nature of the data set: Nuclear magnetic relaxation dispersion (NMRD) profiles, Solomon-Bloembergen-Morgan fit. It is filed as physicochemical. The conditions noted are these: copper free. The method, then: FIG. 9. ^1H Nuclear magnetic relaxation dispersion profiles of CG3 and CG3+Cu^+ acquired at 25° C. The solid lines represent the best fit profiles.
As a secondary, independent set of experiments to further probe the mechanisms of copper ion sensing by the CG contrast agents, we also performed nuclear magnetic relaxation dispersion (NMRD) measurements of these sensors in the absence and in the presence of copper ions using a field cycling relaxometer (FIG. 9). The profiles obtained were analyzed following Solomon-Bloembergen-Morgan theory^36-38 for the inner-sphere relaxivity and the Freed model^115 for the outer-sphere relaxivity, fixing the diffusion coefficient (D) at […], the distance between Gd^3+ and the inner sphere water protons (r) at 3.1 Å, and the inner sphere exchange lifetime (τM) at 160 ns, the reported value for the parent complex Gd^3+-DO3A. Profiles were obtained for all compounds in the copper-free state. Profiles in the presence of Cu^n+ were obtained for CG2-4 (Cu^+) and CG6 (Cu^2+).
In fact, the measured outer-sphere relaxivities were so low that, in order to obtain a reasonable fit, the distance of closest approach of outer-sphere water protons (a) was allowed to vary. The distances obtained for the CG complexes (4.2-4.8 Å) were markedly longer than what is observed for typical Gd^3+ contrast agents with greater water access (3.8-4 Å). These values correlate with the copper-free relaxivities of CG2-6; longer a values give lower relaxivities and shorter a values give higher relaxivities. For Cu^+-sensing agents CG2-4, the estimated change in q of 2 as determined by DIS measurements was also observed in the fitted NMRD data. In fact, any attempt to fit the observed NMRD profiles with q=1 led to very poor agreement between experimental and calculated values. The change in q of 1 for CG6 upon addition of Cu^2+ as determined by NMRD is consistent with the lower turn-on response observed with this complex compared to CG2-4. The reduced q modulation for CG6 relative to CG2-4 could indicate that the carboxylic acid moiety used for Cu^2+ binding also interacts with the Gd^3+ center in the Cu^2+-bound state. The fitted rotational correlation times (τR) for copper-bound CG complexes all fall within the range expected for Gd^3+ complexes with molecular weights of 700-800 D. τR values for copper-free CG2-6 were fixed to values close to their copper-bound analogues as fits of NMRD data for q=0 complexes are not sensitive to small changes in τR. The values of Δ^2 (average quadratic transient zero field splitting), τv (electronic correlation time), and τs0 (electronic relaxation time at zero field), which govern the electronic relaxation time, are relatively similar to each other. These NMRD values are closer to those of Gd^3+-DTPA than Gd^3+-DOTA, reflecting the asymmetry of CG2-6.^64

Consider `CCSCCN(CCSCC)Cc1cccc(CN2CCN(CC(=O)[O-])CCN(CC(=O)[O-])CCN(CC(=O)[O-])CC2)n1.[Gd+3]` [CG2], for which the “τs0 (electronic relaxation time at zero field)” value was found to be 75.6 ps. In addition, the “r1p 20 MHz 25° C.” value (0.5 mM, 20 mM HEPES pH 7) is 1.6 mM⁻¹ s⁻¹. For the setting “best-fit value”, the “a (distance of closest approach of outer-sphere water protons)” value amounted to 4.7 ± 0.11 Å, the “Δ^2 (average quadratic transient zero field splitting)” value was 5.8 ± 1.1 10^19 s^−2 and the “τv (electronic correlation time)” value is reported as 19 ± 2.4 ps. In addition, the q (fixed in the fitting procedure) is given as 0^c. The “τR (rotational correlation time)” value (not experimentally determined, assumed equal to corresponding q ≠ 0 complex (CG5: average of the other complexes)) is given as 110^d ps.
